Data taken from patent publication US11789029B2, “Temporal traumatic brain injury biomarkers and methods of use thereof” (ARIZONA BOARD OF REGENTS ON BEHALF OF ARIZONA STATE …, priority 2019, dated 2023).
“Also recorded” adds a separate entry of the source. No end group written: not given here. bromoacetamide scaffold = not defined here

Columns and labels:
CCI injury sections = experiment: Immunohistochemistry of biotinylated HCDR3 constructs on CCI injury sections; format: binding, mice; conditions: for bioreactivity of control HCDR3 constructs on injured neural tissue: injured tissue at 1 or 7 days post-injury; for bioreactivity of chronic injury targeting HCDR3 constructs: 21 dpi tissue sections, 5 μM construct, Triton-X permeabilization
Experimental: Mice were subject to CCI or sham (n=3 per group/sex) as described previously and perfused with 0.1 M phosphate buffer and 4% paraformaldehyde at specified timepoints. Brains were fixed overnight in 4% paraformaldehyde at 4° C. followed by immersion in 15% sucrose and then 30% sucrose. Brains were flash frozen on dry ice in optimal cutting temperature medium and stored at −80° C. Samples were sectioned coronally at 20 μm thickness.
Tissue sections were incubated with excess streptavidin and biotin to block endogenous biotin using an Endogenous Biotin blocking kit (Thermo Fisher Scientific). After permeabilization with either 0.2% Triton-X 100 or Tween-20, 5 μM of biotinylated HCDR3-construct was incubated on tissue overnight at 4° C. Simultaneously, sections that served as controls were incubated with control HCDR3-construct or 1×PBS. Tissue sections were washed in 1×PBS and incubated with Alexa Fluor 555 streptavidin at room temperature for 2 hours, followed by 1×PBS washes and DAPI incubation for 5 minutes. Slides were imaged using fluorescence microscopy with Leica software.
For NGS analysis, raw counts were first normalized to reads per million (RPM) to account for library differences. A normalized z-score was then used as a threshold to identify dAbs that were highly represented and specific to their distinct injury timepoint. Selected dAbs were then screened for enrichment factor and individual frequency. Fluorescence percentage per area was conducted with ordinary one way ANOVA followed by Dunnett's test for multiple comparisons. Statistical significance was determined as p<0.05. Identified proteins that met the false discovery rate (FDR) threshold of <0.01 were used in all ontological assessments to categorize biological processes and candidate pathways.

[1] = target: T1, Succinate--CoA ligase [ADP-forming] subunit beta, mitochondrial (Mus musculus, UniProt Q9Z2I9); experiment: Immunoprecipitation-mass spectrometry, candidate protein; format: binding
T1 construct: The ipsilateral hemisphere of the brain was immediately dissected and homogenized in chilled lysis buffer; from tissue; host or cells: ipsilateral brain hemisphere lysate of CCI or sham mice
T1 sequence (Q9Z2I9 54-463): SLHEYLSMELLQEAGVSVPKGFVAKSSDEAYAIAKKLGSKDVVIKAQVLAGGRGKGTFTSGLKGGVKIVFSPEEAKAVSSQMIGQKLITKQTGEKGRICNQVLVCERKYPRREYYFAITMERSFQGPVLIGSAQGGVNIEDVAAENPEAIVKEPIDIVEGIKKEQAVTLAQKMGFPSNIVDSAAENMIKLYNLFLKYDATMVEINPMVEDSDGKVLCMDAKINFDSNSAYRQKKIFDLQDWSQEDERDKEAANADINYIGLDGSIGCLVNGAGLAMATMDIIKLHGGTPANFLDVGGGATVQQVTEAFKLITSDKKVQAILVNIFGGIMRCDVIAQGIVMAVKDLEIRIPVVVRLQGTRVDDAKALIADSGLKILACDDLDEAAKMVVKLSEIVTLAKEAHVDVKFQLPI
T1 sequence (Q9WUM5 35-346 partner): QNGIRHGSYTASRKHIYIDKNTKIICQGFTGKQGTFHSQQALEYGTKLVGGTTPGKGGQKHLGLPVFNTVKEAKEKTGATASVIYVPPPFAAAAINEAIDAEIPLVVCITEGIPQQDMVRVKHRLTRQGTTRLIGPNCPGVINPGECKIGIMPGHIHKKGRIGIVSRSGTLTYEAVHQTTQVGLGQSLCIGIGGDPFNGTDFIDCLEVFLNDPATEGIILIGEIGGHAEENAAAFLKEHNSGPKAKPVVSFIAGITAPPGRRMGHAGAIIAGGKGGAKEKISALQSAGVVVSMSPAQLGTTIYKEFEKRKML
Text: (§1) CCI and sham surgeries were completed as described previously. Mice were sacrificed at 1 d, 7 d, or 21 d post-injury (n=3/group) via transcardial perfusion with phosphate buffer, pH 7.4. The ipsilateral hemisphere of the brain was immediately dissected and homogenized in chilled lysis buffer (1×PBS, 1% Triton, protease inhibitor cocktail). Protein concentration of the homogenates was quantified with the Pierce BCA Protein Assay Kit (Thermo Fisher).
(§2) Streptavidin-coupled Dynabeads (Thermo Fisher) were washed with 1×PBST with 0.1% Tween and incubated with 1 mg/mL tissue lysate for 1 hour at room temperature. Pre-cleared lysate was collected after separation from magnetic beads and incubated with 450 pmol of HCDR3-construct rotating overnight at 4° C. to form the immune complex. The immune complex was then incubated with Streptavidin-coupled Dynabeads for 1 hour at room temperature before antigen was eluted from beads by heating sample at 95° C. with SDS PAGE running buffer. Samples were run on a pre-cast 12% SDS-PAGE gel (Bio-Rad) and bands were excised. Gel bands were processed by ASU Biodesign Mass Spectrometry Facility for digestion and protein identification with the Thermo Orbitrap Fusion Lumos (Thermo Fisher).
(§3) UniProt IDs of identified proteins were uploaded to the PANTHER classification system and searched against the Mus musculus reference database. Ontological assessments to characterize cellular localization, molecular function, biological processes, and pathways were conducted with PANTHER Overrepresentation test (Fisher's Exact test, p<0.05 using Benjamini Hochberg False Discovery Rate correction) with the GO Ontology database (released 2019-10-08).

[2] = target: T2, citrate synthase, mitochondrial (Mus musculus, UniProt Q9CZU6); experiment: as above; format: binding
T2 construct: The ipsilateral hemisphere of the brain was immediately dissected and homogenized in chilled lysis buffer; from tissue; host or cells: ipsilateral brain hemisphere lysate of CCI or sham mice
T2 sequence (Q9CZU6 28-464): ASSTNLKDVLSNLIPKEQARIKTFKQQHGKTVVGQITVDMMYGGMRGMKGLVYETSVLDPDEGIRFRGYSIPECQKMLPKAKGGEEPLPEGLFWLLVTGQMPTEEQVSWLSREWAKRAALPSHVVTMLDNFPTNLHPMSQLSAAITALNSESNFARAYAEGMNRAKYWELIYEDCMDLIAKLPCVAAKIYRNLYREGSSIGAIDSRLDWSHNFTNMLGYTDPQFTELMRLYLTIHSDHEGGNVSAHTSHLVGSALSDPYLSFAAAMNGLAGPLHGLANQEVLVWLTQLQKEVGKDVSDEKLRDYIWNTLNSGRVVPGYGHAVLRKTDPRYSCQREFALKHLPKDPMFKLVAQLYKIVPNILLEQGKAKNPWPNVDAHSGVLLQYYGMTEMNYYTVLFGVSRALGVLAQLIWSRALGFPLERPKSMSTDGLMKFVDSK
Text: as §1, §2, §3

tissue lysates = experiment: Immunoprecipitation-mass spectrometry with HCDR3 constructs as capture antibodies; format: binding, Mus musculus; conditions: A2 with 1 dpi tissue lysates, SA1 with 7 dpi tissue lysates
Text: as §1, §2
UniProt IDs of identified proteins were uploaded to the PANTHER classification system and searched against the Mus musculus reference database. […]

[3] = target: T3, Heat shock cognate 71 kDa protein (Mus musculus, UniProt P63017); experiment: Immunoprecipitation-mass spectrometry, candidate protein; format: binding
T3 construct: The ipsilateral hemisphere of the brain was immediately dissected and homogenized in chilled lysis buffer; from tissue; host or cells: ipsilateral brain hemisphere lysate of CCI or sham mice
T3 sequence (P63017 whole entry): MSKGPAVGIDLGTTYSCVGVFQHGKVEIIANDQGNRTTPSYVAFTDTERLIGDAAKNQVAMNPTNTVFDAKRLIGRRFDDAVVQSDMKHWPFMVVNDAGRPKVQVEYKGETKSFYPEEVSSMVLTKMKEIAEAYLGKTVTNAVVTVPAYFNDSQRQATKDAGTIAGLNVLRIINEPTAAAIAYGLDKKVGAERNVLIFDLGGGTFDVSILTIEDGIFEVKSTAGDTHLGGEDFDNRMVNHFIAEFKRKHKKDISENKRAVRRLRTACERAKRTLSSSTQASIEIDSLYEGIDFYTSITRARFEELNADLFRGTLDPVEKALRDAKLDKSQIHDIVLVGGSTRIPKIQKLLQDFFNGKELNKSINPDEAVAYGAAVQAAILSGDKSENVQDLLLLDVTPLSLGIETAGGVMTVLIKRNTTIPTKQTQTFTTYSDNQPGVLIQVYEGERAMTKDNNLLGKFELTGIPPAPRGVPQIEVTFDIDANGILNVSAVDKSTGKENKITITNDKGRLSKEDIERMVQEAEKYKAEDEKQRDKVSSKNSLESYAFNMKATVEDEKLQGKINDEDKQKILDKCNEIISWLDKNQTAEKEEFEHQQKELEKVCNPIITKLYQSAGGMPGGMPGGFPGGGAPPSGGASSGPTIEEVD
Text: as §1, §2, §3

[4] = target: T4, Endoplasmic reticulum chaperone BiP (Mus musculus, UniProt P20029); experiment: as above; format: binding
T4 construct: The ipsilateral hemisphere of the brain was immediately dissected and homogenized in chilled lysis buffer; from tissue; host or cells: ipsilateral brain hemisphere lysate of CCI or sham mice
T4 sequence (P20029 20-655): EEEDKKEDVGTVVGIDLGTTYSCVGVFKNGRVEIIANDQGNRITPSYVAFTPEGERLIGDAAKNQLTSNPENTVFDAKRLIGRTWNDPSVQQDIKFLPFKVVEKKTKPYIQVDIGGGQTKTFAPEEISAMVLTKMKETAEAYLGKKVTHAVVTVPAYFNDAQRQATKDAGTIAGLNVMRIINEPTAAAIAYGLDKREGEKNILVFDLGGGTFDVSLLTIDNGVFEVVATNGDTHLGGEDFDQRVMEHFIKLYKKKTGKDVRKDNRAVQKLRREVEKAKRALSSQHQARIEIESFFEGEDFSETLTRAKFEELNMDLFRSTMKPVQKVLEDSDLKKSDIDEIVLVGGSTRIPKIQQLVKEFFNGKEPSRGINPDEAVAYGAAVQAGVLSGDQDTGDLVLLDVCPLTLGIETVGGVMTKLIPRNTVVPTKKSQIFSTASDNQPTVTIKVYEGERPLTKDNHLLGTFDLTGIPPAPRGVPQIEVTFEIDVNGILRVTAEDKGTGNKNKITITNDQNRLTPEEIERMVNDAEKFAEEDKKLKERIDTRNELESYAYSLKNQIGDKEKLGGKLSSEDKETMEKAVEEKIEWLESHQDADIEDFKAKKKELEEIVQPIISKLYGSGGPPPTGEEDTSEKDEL
Text: as §1, §2, §3

## GGDTFRDASQSMHF [dAb-CDR3, reference compound]
CCI injury sections
  bioreactivity of control HCDR3 constructs on injured neural tissue: no detectable bioreactivity

## GPLDGKEEELRF [SP-CDR3, reference compound]
CCI injury sections
  bioreactivity of control HCDR3 constructs on injured neural tissue: no detectable bioreactivity

## RLVRESSQEHTLSS [CH1, 5, chronic injury]
CCI injury sections
  bioreactivity of chronic injury targeting HCDR3 constructs: negligible bioreactivity

## SLYGSSRHTAPISF (linker (positions not given here) via bromoacetamide scaffold; not fully specified; reading uncertain; also: cyclized on bromoacetamide scaffold with biotin, sites not given here) [A2, 2, acute stage; peptide cyclized on bromoacetamide scaffold containing biotin]
[1]
  # Peptides: 4
[2]
  # Peptides: 3
CCI injury sections; 1 day post-injury compared to sham, subacute, and chronic tissue sections
  sensitivity and affinity to the peri-injury region: high sensitivity and affinity
CCI injury sections; in comparison to sham (p=0.0120) and 7 days post-injury tissue (p=0.0221)
  bioreactivity determined by the fluorescence on 1 dpi tissue: significant bioreactivity
CCI injury sections; p=0.0658
  bioreactivity, 1 days post-injury versus 21 days post injury tissue: No significant differences
Tissue lysates
  immunoprecipitation eluate separated by SDS-PAGE: isolated proteins unique to the injury condition

## TAERDARTFQY (linker (positions not given here) via bromoacetamide scaffold; not fully specified; reading uncertain; also: cyclized on bromoacetamide scaffold with biotin, sites not given here) [A1, 1, acute stage; peptide cyclized on bromoacetamide scaffold containing biotin]
CCI injury sections; fixed mouse brain tissue at 1 dpi
  IHC signal on injured tissue: no detectable signal; also recorded: did not show detectable bioreactivity

## TDCQETPYELKS [CH2, 6, chronic injury]
CCI injury sections
  bioreactivity of chronic injury targeting HCDR3 constructs: non-specific staining

## TDLAVAHPVRY (linker (positions not given here) via bromoacetamide scaffold; not fully specified; reading uncertain; also: cyclized on bromoacetamide scaffold with biotin, sites not given here) [SA1, 3, subacute stage; peptide cyclized on bromoacetamide scaffold containing biotin]
[3]
  # Peptides: 6
[4]
  # Peptides: 6
CCI injury sections; 7 days post-injury tissue
  stain in the peri-injury region of injured tissue: Positive stain; also recorded: positively binding
CCI injury sections; p=0.0993 (1 dpi), p=0.0780 (21 dpi)
  bioreactivity, 7 days post-injury versus 1 days post-injury or 21 days post-injury tissue: No significant differences
CCI injury sections; sham brain sections, p=0.0079 versus 7 days post-injury
  localization of stain in sham brain sections: not observed
Tissue lysates
  immunoprecipitation eluate separated by SDS-PAGE: isolated proteins unique to the injury condition

## TGHEGENEMAS [HE-CDR3, reference compound]
CCI injury sections
  bioreactivity of control HCDR3 constructs on injured neural tissue: no detectable bioreactivity
